{"source": "patent US12214080B2", "about": "“Micronized lipids” (MCAL Therapeutics Inc., priority 2021, dated 2025)", "key": {"[1]": {"test": "Solubility and general physicochemical properties of MCAL-201", "experimental": "The general and physiochemical properties of MCAL-201 are: • 1,2-EPRG has a molecular weight of 611.05 g/mol • Empirical formula: C39H78O4 • Appearance: White powder • Particle size: 1-10 μm (post micronization) • Hygroscopicity: Low • Chirality: Racemic • Enantiomeric excess: 0 • Melting point: 57° C. • Solubility: Insoluble in water. Soluble in chloroform (40 mg/mL) and castor oil (25 mg/mL)\nHowever, preparation of a water soluble cyclodextrin inclusion complex of MCAL-201 was used in nonclinical efficacy studies. In addition, solutions of MCAL-201 in castor oil which can be emulsified to micron sized liquid particles in aqueous buffers can be used to deliver MCAL-201 directly to the tear film lipid layer."}, "[2]": {"test": "Chemical and isomeric stability (1,2-EPRG to 1,3-EPRG acyl migration), NMR analysis", "format": "physicochemical", "excerpt": "This led to development of the delivery of solid MCAL-201 as a suspension of crystalline or amorphous micronized solid particle suspended in a water-based formulation isotonic with tear. Although MCAL-201 crystalline drug substance floated on phosphate buffered saline (PBS) it could be suspended following micronization to 1-10 micron particles which could be stably suspended in PBS with the aid of polysorbate 80 as a wetting agent and xanthan gum to adjust density and viscosity of the drug product."}, "[3]": {"test": "Physical stability of the micronized suspension toward separation of particles", "format": "physicochemical", "settings": "suspension in PBS with polysorbate 80 and xanthan gum, room temperature", "description": "Treatment of these particles with poly-sorbate 80 (0.3% w/w) as a wetting agent affords a suspension of the micronized particles in a mixture of xanthan gum (0.1-0.3% w/w, See FIG. 3) in Phosphate Buffered Saline (PBS, pH 6-8, 260-320 mOsm/L) suitable for administration as a stably suspended topical drop or suspension for injection."}, "naïve dogs": {"tested_on": "naïve dogs", "test": "Non-GLP topical ocular dose range-finding toxicity and tolerability study (SPOTS, IOP, STT)", "format": "in vivo", "experimental": "(§1) A non-GLP topical ocular administration dose range-finding pharmacology and toxicity study of MCAL-201 was conducted in naïve dogs. The primary study objective was to assess the tolerability of topical ocular administration of MCAL-201 in dogs with a secondary objective to obtain data supporting pharmacological activity in healthy dogs.\n(§2) The effects of vehicle and 0.1, 0.5, 1, 3 and 10 mg/mL MCAL-201 delivered as a 35 μL drop bilaterally QD (0.0035, 0.0175, 0.035, 0.105 and 0.35 mg/eye/day) were evaluated in Part I. The dosing regimen is summarized in 3.\n(§3) Scoring of the ocular surface and anterior segment of the eye was performed using the SPOTS system by a board-certified veterinary ophthalmologist. SPOTS was performed for each concentration evaluated. To measure TBUT, fluorescein was instilled in the eye and the eye was manually closed and then gently opened to simulate a blink. The time interval between the opening of the eye and the first sign of disruption of the uniform tear film, as indicated by breaks in the fluorescein was recorded in seconds. The procedure was repeated three times on both eyes, first right than left eye. After BID dosing with 10 mg/mL MCAL-201, SPOTS was also performed at 48 hours after the last dose."}, "healthy dogs": {"tested_on": "healthy dogs", "test": "Tear film break-up time (TBUT) after topical ocular administration", "format": "in vivo, dog", "settings": "5 healthy adult dogs, single administration (FIG. 6)", "experimental": "as §1, §2, §3"}}, "note": "Entries after “also recorded” stand apart in the source; their conditions may differ.", "data": [{"compound": "CCCCCCCCCCCCCCCCCCCCOCC(CO)OC(=O)CCCCCCCCCCCCCCC", "note": "(racemic) [MCAL-201, 1-O-eicosanyl-2-palmitoyl-rac-glycerol]", "values": [{"measurement": "Hygroscopicity", "setting": "[1]", "value": "Low"}, {"measurement": "Solubility in water", "setting": "[1]; water", "value": "Insoluble; also recorded: extreme insolubility"}, {"measurement": "1,3-EPRG isomeric content", "setting": "[2]; after jet mill micronization, NMR (FIG. 4)", "value": 1.15, "unit": "mol %"}, {"measurement": "Long-term chemical stability in the liquid solution phase (acyl migration of the palmitoyl group from 2 to 3 position)", "setting": "[2]; liquid solution phase", "value": "lacked long-term chemical stability"}, {"measurement": "Isomeric stability in the suspension formulation, duration demonstrated", "setting": "[2]; micronized MCAL-201 in suspension formulation, room temperature", "value": 6, "unit": "weeks"}, {"measurement": "1,3-EPRG isomeric content", "setting": "[2]; solid micronized suspension stored at room temperature for 6 weeks, NMR (FIG. 5)", "value": 0.0991, "unit": "mol %"}, {"measurement": "Isomeric stability in the solid phase compared with solution", "setting": "[2]; solid phase", "value": "far greater than in solution"}, {"measurement": "Physical stability of the micronized suspension (floating, sinking or aggregation), duration demonstrated", "setting": "[3]", "value": "> 6", "unit": "months"}, {"measurement": "Ocular or systemic adverse events", "setting": "naïve dogs; any time or concentration evaluated (up to 10 mg/mL OU BID for 48 hours)", "value": "no ocular or systemic adverse events"}, {"measurement": "Tolerability", "setting": "naïve dogs; topical ocular 35 μL drop, up to 10 mg/mL OU BID for 48 hours", "value": "well tolerated"}, {"measurement": "Tear film break-up time (TBUT)", "setting": "healthy dogs", "value": "extended TBUT"}]}]}
